Measured values from PMC8744458 (Beilstein Journal of Organic Chemistry, 2022).
Entries after “also recorded” stand apart in the source; their conditions may differ. No end group written: not given here.

What was measured:
[1] = on-resin intramolecular Suzuki-Miyaura biaryl stapling (i,i+4) between 6- or 7-bromo-Trp and aryl boronic acid/Bpin side chain; Pd2(dba)3 0.2 eq, sSPhos 0.4 eq, KF 4 eq, microwave 120 C 30 min; then TFA/TIS/H2O cleavage; settings: the molecule shown is the open-chain precursor, DME/EtOH/H2O 9:9:2, 16.7 mM, 0.5 h
[2] = tested on: Proteinase K; assay: Proteinase K (2.5 µg mL−1) in Na2HPO4 buffer (100 mM, pH 7.4); settings: 25 °C, up to 120 min
[3] = not given; remark: listed apart in the source
[4] = not given; remark: listed apart in the source
[5] = molecular target: T1, β-catenin (Homo sapiens, UniProt P35222); assay: direct fluorescence polarisation
T1 chain: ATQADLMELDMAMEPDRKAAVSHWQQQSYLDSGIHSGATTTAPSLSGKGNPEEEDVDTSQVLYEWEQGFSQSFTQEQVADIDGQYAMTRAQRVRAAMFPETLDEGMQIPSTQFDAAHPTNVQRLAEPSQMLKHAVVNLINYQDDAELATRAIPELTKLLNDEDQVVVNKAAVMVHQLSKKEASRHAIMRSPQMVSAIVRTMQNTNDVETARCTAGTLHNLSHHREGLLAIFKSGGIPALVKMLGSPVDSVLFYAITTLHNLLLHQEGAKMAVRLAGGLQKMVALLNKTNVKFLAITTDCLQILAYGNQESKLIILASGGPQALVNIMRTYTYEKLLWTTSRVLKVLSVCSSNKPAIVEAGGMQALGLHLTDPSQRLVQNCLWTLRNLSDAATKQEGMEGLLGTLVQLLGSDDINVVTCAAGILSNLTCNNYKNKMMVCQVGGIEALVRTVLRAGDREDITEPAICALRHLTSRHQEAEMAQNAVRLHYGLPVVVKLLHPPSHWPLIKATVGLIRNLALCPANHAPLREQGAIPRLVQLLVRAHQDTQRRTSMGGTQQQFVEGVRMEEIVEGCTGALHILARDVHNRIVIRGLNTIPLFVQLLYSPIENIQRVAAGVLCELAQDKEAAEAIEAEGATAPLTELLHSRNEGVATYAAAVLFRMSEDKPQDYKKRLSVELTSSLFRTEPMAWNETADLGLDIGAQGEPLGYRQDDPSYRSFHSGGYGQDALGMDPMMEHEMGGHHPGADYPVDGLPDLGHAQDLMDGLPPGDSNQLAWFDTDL

For `CC[C@H](C)[C@H](NC(=O)[C@H](Cc1c[nH]c2c(Br)cccc12)NC(=O)[C@H](CCC(=O)OC(C)(C)C)NC(=O)[C@@H]1CCCN1C(=O)[C@H](CC(=O)NC(c1ccccc1)(c1ccccc1)c1ccccc1)NC(=O)[C@H](CCC(=O)OC(C)(C)C)NC(C)=O)C(=O)N[C@@H](CC(C)C)C(=O)N[C@@H](CC(=O)OC(C)(C)C)C(=O)N[C@@H](CCCCNC(=O)CCc1ccc(B(O)O)cc1)C(=O)N[C@@H](Cc1cn(C(c2ccccc2)(c2ccccc2)c2ccccc2)cn1)C(=O)N[C@H](C(=O)N[C@@H](CCC(=O)NC(c1ccccc1)(c1ccccc1)c1ccccc1)C(=O)N[C@@H](CCCNC(=N)NS(=O)(=O)c1c(C)c(C)c2c(c1C)CC(C)(C)O2)C(=O)N[C@H](C(=O)N[C@@H](CCSC)C(N)=O)C(C)C)C(C)C`, the ring closure, overall yield ([1]; 30-membered ring) was 14%.

For “Ac-Glu-Asn-Pro-Glu-Trp-Ile-Leu-Asp-Lys-His-Val-Gln-Arg-Val-Met-NH2 (Trp and Lys drawn as structures, side chains cross-linked by the 7-aryl-Trp staple)”, the cleaved bond [2] was “Gln-Arg” and the not cleaved [2] was “not hydrolysed after leucine within 120 min; also recorded: not hydrolysed after lysine within 120 min”.

For `CC[C@H](C)[C@H](NC(=O)[C@H](Cc1c[nH]c2c(Br)cccc12)NC(=O)[C@H](CCC(=O)OC(C)(C)C)NC(=O)[C@@H]1CCCN1C(=O)[C@H](CC(=O)NC(c1ccccc1)(c1ccccc1)c1ccccc1)NC(=O)[C@H](CCC(=O)OC(C)(C)C)NC(C)=O)C(=O)N[C@@H](CC(C)C)C(=O)N[C@@H](CC(=O)OC(C)(C)C)C(=O)N[C@@H](Cc1ccc(B2OC(C)(C)C(C)(C)O2)cc1)C(=O)N[C@@H](Cc1cn(C(c2ccccc2)(c2ccccc2)c2ccccc2)cn1)C(=O)N[C@H](C(=O)N[C@@H](CCC(=O)NC(c1ccccc1)(c1ccccc1)c1ccccc1)C(=O)N[C@@H](CCCNC(=N)NS(=O)(=O)c1c(C)c(C)c2c(c1C)CC(C)(C)O2)C(=O)N[C@H](C(=O)N[C@@H](CCSC)C(N)=O)C(C)C)C(C)C`, the ring closure, overall yield ([1]; 23-membered ring) was 3%.

Molecule `CC[C@H](C)[C@H](NC(=O)[C@H](Cc1c[nH]c2c(Br)cccc12)NC(=O)[C@H](CCC(=O)OC(C)(C)C)NC(=O)[C@@H]1CCCN1C(=O)[C@H](CC(=O)NC(c1ccccc1)(c1ccccc1)c1ccccc1)NC(=O)[C@H](CCC(=O)OC(C)(C)C)NC(C)=O)C(=O)N[C@@H](CC(C)C)C(=O)N[C@@H](CC(=O)OC(C)(C)C)C(=O)N[C@@H](CCCCNC(=O)c1ccc(B(O)O)cc1)C(=O)N[C@@H](Cc1cn(C(c2ccccc2)(c2ccccc2)c2ccccc2)cn1)C(=O)N[C@H](C(=O)N[C@@H](CCC(=O)NC(c1ccccc1)(c1ccccc1)c1ccccc1)C(=O)N[C@@H](CCCNC(=N)NS(=O)(=O)c1c(C)c(C)c2c(c1C)CC(C)(C)O2)C(=O)N[C@H](C(=O)N[C@@H](CCSC)C(N)=O)C(C)C)C(C)C` has a ring closure, overall yield ([1]; 28-membered ring) of 11%.

Molecule Ac-ENPESILDEHVQRVM-NH2 has a θ222 of -4.29 mdeg, a [θ]222 (deg cm2 dmol-1) [3] of -42900 and an MRE (deg cm2 dmol-1) [4] of -2860.

`CC[C@H](C)[C@H](NC(=O)[C@H](Cc1c[nH]c2c(Br)cccc12)NC(=O)[C@H](CCC(=O)OC(C)(C)C)NC(=O)[C@@H]1CCCN1C(=O)[C@H](CC(=O)NC(c1ccccc1)(c1ccccc1)c1ccccc1)NC(=O)[C@H](CCC(=O)OC(C)(C)C)NC(C)=O)C(=O)N[C@@H](CC(C)C)C(=O)N[C@@H](CC(=O)OC(C)(C)C)C(=O)N[C@@H](CCNC(=O)c1ccc(B(O)O)cc1)C(=O)N[C@@H](Cc1cn(C(c2ccccc2)(c2ccccc2)c2ccccc2)cn1)C(=O)N[C@H](C(=O)N[C@@H](CCC(=O)NC(c1ccccc1)(c1ccccc1)c1ccccc1)C(=O)N[C@@H](CCCNC(=N)NS(=O)(=O)c1c(C)c(C)c2c(c1C)CC(C)(C)O2)C(=O)N[C@H](C(=O)N[C@@H](CCSC)C(N)=O)C(C)C)C(C)C` showed a ring closure, overall yield ([1]; 26-membered ring) of 9%.

`CC[C@H](C)[C@H](NC(=O)[C@H](Cc1c[nH]c2cc(Br)ccc12)NC(=O)[C@H](CCC(=O)OC(C)(C)C)NC(=O)[C@@H]1CCCN1C(=O)[C@H](CC(=O)NC(c1ccccc1)(c1ccccc1)c1ccccc1)NC(=O)[C@H](CCC(=O)OC(C)(C)C)NC(C)=O)C(=O)N[C@@H](CC(C)C)C(=O)N[C@@H](CC(=O)OC(C)(C)C)C(=O)N[C@@H](Cc1ccc(B2OC(C)(C)C(C)(C)O2)cc1)C(=O)N[C@@H](Cc1cn(C(c2ccccc2)(c2ccccc2)c2ccccc2)cn1)C(=O)N[C@H](C(=O)N[C@@H](CCC(=O)NC(c1ccccc1)(c1ccccc1)c1ccccc1)C(=O)N[C@@H](CCCNC(=N)NS(=O)(=O)c1c(C)c(C)c2c(c1C)CC(C)(C)O2)C(=O)N[C@H](C(=O)N[C@@H](CCSC)C(N)=O)C(C)C)C(C)C` showed a ring closure, overall yield ([1]; 24-membered ring) of 4%.

In the case of `CC[C@H](C)[C@H](NC(=O)[C@H](Cc1c[nH]c2cc(Br)ccc12)NC(=O)[C@H](CCC(=O)OC(C)(C)C)NC(=O)[C@@H]1CCCN1C(=O)[C@H](CC(=O)NC(c1ccccc1)(c1ccccc1)c1ccccc1)NC(=O)[C@H](CCC(=O)OC(C)(C)C)NC(C)=O)C(=O)N[C@@H](CC(C)C)C(=O)N[C@@H](CC(=O)OC(C)(C)C)C(=O)N[C@@H](CCNC(=O)c1ccc(B(O)O)cc1)C(=O)N[C@@H](Cc1cn(C(c2ccccc2)(c2ccccc2)c2ccccc2)cn1)C(=O)N[C@H](C(=O)N[C@@H](CCC(=O)NC(c1ccccc1)(c1ccccc1)c1ccccc1)C(=O)N[C@@H](CCCNC(=N)NS(=O)(=O)c1c(C)c(C)c2c(c1C)CC(C)(C)O2)C(=O)N[C@H](C(=O)N[C@@H](CCSC)C(N)=O)C(C)C)C(C)C`, the ring closure, overall yield ([1]; 27-membered ring) is reported as 8%.

In the case of Ac-ENPEWILDKHVQRVM-NH2, the cleaved bond [2] is reported as “Leu-Asp; also recorded: Lys-His; also recorded: Gln-Arg”.

Work on `CC[C@H](C)[C@H](NC(=O)[C@H](Cc1c[nH]c2cc(Br)ccc12)NC(=O)[C@H](CCC(=O)OC(C)(C)C)NC(=O)[C@@H]1CCCN1C(=O)[C@H](CC(=O)NC(c1ccccc1)(c1ccccc1)c1ccccc1)NC(=O)[C@H](CCC(=O)OC(C)(C)C)NC(C)=O)C(=O)N[C@@H](CC(C)C)C(=O)N[C@@H](CC(=O)OC(C)(C)C)C(=O)N[C@@H](CCCCNC(=O)c1ccc(B(O)O)cc1)C(=O)N[C@@H](Cc1cn(C(c2ccccc2)(c2ccccc2)c2ccccc2)cn1)C(=O)N[C@H](C(=O)N[C@@H](CCC(=O)NC(c1ccccc1)(c1ccccc1)c1ccccc1)C(=O)N[C@@H](CCCNC(=N)NS(=O)(=O)c1c(C)c(C)c2c(c1C)CC(C)(C)O2)C(=O)N[C@H](C(=O)N[C@@H](CCSC)C(N)=O)C(C)C)C(C)C` yielded a ring closure, overall yield ([1]; 29-membered ring) of 10%.

In the case of `CC[C@H](C)[C@H](NC(=O)[C@H](Cc1c[nH]c2c(Br)cccc12)NC(=O)[C@H](CCC(=O)OC(C)(C)C)NC(=O)[C@@H]1CCCN1C(=O)[C@H](CC(=O)NC(c1ccccc1)(c1ccccc1)c1ccccc1)NC(=O)[C@H](CCC(=O)OC(C)(C)C)NC(C)=O)C(=O)N[C@@H](CC(C)C)C(=O)N[C@@H](CC(=O)OC(C)(C)C)C(=O)N[C@@H](CCCNC(=O)c1ccc(B(O)O)cc1)C(=O)N[C@@H](Cc1cn(C(c2ccccc2)(c2ccccc2)c2ccccc2)cn1)C(=O)N[C@H](C(=O)N[C@@H](CCC(=O)NC(c1ccccc1)(c1ccccc1)c1ccccc1)C(=O)N[C@@H](CCCNC(=N)NS(=O)(=O)c1c(C)c(C)c2c(c1C)CC(C)(C)O2)C(=O)N[C@H](C(=O)N[C@@H](CCSC)C(N)=O)C(C)C)C(C)C`, the ring closure, overall yield ([1]; 27-membered ring) is reported as 8%.

Molecule `CC[C@H](C)[C@H](NC(=O)[C@H](Cc1c[nH]c2cc(Br)ccc12)NC(=O)[C@H](CCC(=O)OC(C)(C)C)NC(=O)[C@@H]1CCCN1C(=O)[C@H](CC(=O)NC(c1ccccc1)(c1ccccc1)c1ccccc1)NC(=O)[C@H](CCC(=O)OC(C)(C)C)NC(C)=O)C(=O)N[C@@H](CC(C)C)C(=O)N[C@@H](CC(=O)OC(C)(C)C)C(=O)N[C@@H](CCCNC(=O)c1ccc(B(O)O)cc1)C(=O)N[C@@H](Cc1cn(C(c2ccccc2)(c2ccccc2)c2ccccc2)cn1)C(=O)N[C@H](C(=O)N[C@@H](CCC(=O)NC(c1ccccc1)(c1ccccc1)c1ccccc1)C(=O)N[C@@H](CCCNC(=N)NS(=O)(=O)c1c(C)c(C)c2c(c1C)CC(C)(C)O2)C(=O)N[C@H](C(=O)N[C@@H](CCSC)C(N)=O)C(C)C)C(C)C` has a ring closure, overall yield ([1]; 28-membered ring) of 8%.

PESILDEHVQRVLRT (also: FITC label, site not given here) [fAxWt (FITC-labelled axin CBD peptide) 467-481] gave a Kd [5] of 1.19 µM.
